# Where two headings read alike, the source gives them in different places.
# Experiments:
# [1] = system: honey bees; format: in vivo, Apis mellifera
# Method: (§1) The ability of KATP modulators to rescue or synergize paraquat-induced mortality was then assessed by incorporating modulators into 1:1 sucrose containing paraquat. […] Quantification of ROS among survivors was performed using the Total Antioxidant Capacity Assay kit (Cayman Chemical).
# [2] = system: bees from Varroa destructor infested colonies; format: in vivo, Apis mellifera
# Method: Age-matched bees from colonies with higher (> 10 mites/100 bees) and lower (< 1 mite/100 bees) were placed in hoarding cages and allowed to feed ad libitum on sucrose solution alone or containing paraquat. Survivorship was assessed at 24-h intervals, and LT50 times were calculated by nonlinear regression using a Hill equation.
# [3] = system: honey bees; format: in vivo, Apis mellifera; remark: listed apart in the source
# Method: An LC50 for paraquat in 1:1 sucrose diet was determined for 72 h of oral exposure by constructing a concentration–response curve. The ability of KATP modulators to rescue or synergize paraquat-induced mortality was then assessed by incorporating modulators into 1:1 sucrose containing paraquat. Mortality assessments and sampling of surviving bees was conducted at 24-h intervals. Quantification of ROS among survivors was performed using the Total Antioxidant Capacity Assay kit (Cayman Chemical).
# [4] = system: phenoloxidase (POX); assay: Phenoloxidase activity of treated bees (individual immunity); format: in vivo, Apis mellifera
# Method: (§2) Individual bees were sampled at 24-h intervals and frozen in liquid nitrogen. Social immunity was measured by quantifying the metabolism of glucose to hydrogen peroxide by glucose oxidase. Briefly, heads were homogenized in ice-cold extraction buffer then centrifuged at 15,000×g. Aliquots of supernatant were incubated with horse radish peroxidase and glucose at 37 °C, then combined with the chromogen o-dianisidine dihydrochloride. Absorbance was read at 430 nm over a period of 90 min and compared to sample blanks, lacking chromogen. To measure individual immunity, phenoloxidase activity was measured as described. Abdomens were homogenized as and centrifuged as previously described. Supernatant was incubated at 37 °C, then combined with the chromogen L-Dopa. Absorbance was measured at 490 nm for 20 min, then compared to sample blanks lacking chromogen. To compare both glucose oxidase and phenol oxidase activity between samples, Vmax was calculated using the Michaelis–Menten equation.
# [5] = system: bees inoculated with Israeli acute paralysis virus (IAPV); assay: IAPV-mediated mortality of bees fed KATP modulator or paraquat; format: in vivo, Apis mellifera; set-up: Survivorship after IAPV inoculation compared to IAPV alone: dose or concentration left out as unconfirmed
# Method: IAPV was obtained following our previously described methods. Approximately 30 adult bees from a heavily infected IAPV infected colony were froze in liquid nitrogen, ground to a fine powder, and homogenized in a phosphate extraction buffer. The supernatant was collected after centrifuging the emulsion and filtered through a 0.2 micron filter. The filtrate was subsequently centrifuged at 30,000 rpm to pellet the picornavirus particles and was followed by resusopension in PBS and centrifuged at 52,000 rpm overnight. The fractions containing virus particles were dialyzed against cold PBS overnight. Verification that IAPV was the only virus present in the inoculum was performed via qRT-PCR and quantification of IAPV was performed by absolute quantification using standard curve method as previously described.
# Bees were immobilized on ice, then injected with PBS alone or containing IAPV and returned to the incubator. […] Quantification of IAPV mRNA among whole bees and excised insect dorsal vessels was performed by qRT-PCR as detailed below.
# [6] = system: total antioxidant concentrations in bees; assay: Total antioxidant capacity of bees (quantification of ROS); format: in vivo, Apis mellifera; settings: alone
# Method: as §1
# [7] = system: glucose oxidase (GOX); assay: Glucose oxidase activity of treated bees (social immunity); format: in vivo, Apis mellifera
# Method: as §2
# [8] = system: Black queen cell virus (BQCV); assay: Field colony study, change in virus titer by qRT-PCR: BQCV; format: in vivo
# Method: (§3) Nucleus colonies of bees were established as previously described and relocated to a geographically isolated apiary and were grown to full-size colonies and equalized based on population prior to initiation of the study. The bees were maintained in eight-frame Langstroth equipment and kept as single deeps with a medium super with undrawn foundation. […] DWV inoculum was prepared by injecting filter-sterilized homogenate from a DWV-positive symptomatic bee into white-eyed honey bee pupae. 72-h later, an aliquot of pupae was screened for preliminary confirmation of DWV infection and found to contain between 5E9 and 8E9 viral copies of DWV-A per individual. Remaining pupae were homogenized in ice-cold PBS, with aliquots retained for qRT-PCR screening of DWV, as well as additional viruses relevant to bee health. Homogenate solutions were diluted in 1:1 sucrose and placed in calibrated spray bottles. A treatment and sampling schedule was constructed based on the 21-day egg-to-adult life history of worker bees (Additional file 1: Fig. S1). Both pinacidil and virus solutions were prepared fresh daily. […] A quantity of 15 fully formed adult stage bees were removed from the capped cells and placed into 15 mL conical vials. All samples were stored on dry ice during field collection, then transferred to − 80 °C until virus quantification. Titers of DWV-A, DWV-B, BQCV, IAPV, LSV-1 and LSV-2 were quantified by qRT-PCR using primer sequences described in our previous publications.
# (§4) Samples were removed from − 80 °C storage and placed in a nuclease-free chilled bead bath (~ 4 °C) to gently thaw. […] RNA concentrations were then quantified for each sample using the NanoDrop 1-C® instrument. […] Library construction was performed using the Quantitect Reverse Transcription kit according to manufacturer instructions (Qiagen, N.V.). Template cDNA was then quantified by NanoDrop 1-C® and standardized to 500 ng/uL by addition of nuclease-free H2O.
# (§5) To accurately quantify virus infection, it was necessary to first construct a standard curve for each target virus. […]
# [9] = system: bee dorsal vessel; set-up: method as in PMID 28412203; settings: cited from earlier work
# [10] = system: DWV-B; assay: Field colony study, change in virus titer by qRT-PCR: DWV-B; format: in vivo, Deformed Wing virus
# Method: as §3, §4, §5
# [11] = system: IAPV; assay: IAPV mRNA titer in excised dorsal vessels by qRT-PCR; format: in vivo, Israeli acute paralysis virus; settings: pinacidil 24 h prior to IAPV inoculation; vessels excised 24 h post-inoculation
# Method: Groups of 30 age-matched bees were fed 1:1 sucrose diet alone or containing KATP modulators or 0.5 mg/mL paraquat for 24 h. Bees were immobilized on ice, then injected with PBS alone or containing IAPV and returned to the incubator. Mortality assessments and sampling of survivors were conducted at 24-h intervals. Quantification of IAPV mRNA among whole bees and excised insect dorsal vessels was performed by qRT-PCR as detailed below.
# as §4
# To accurately quantify virus infection, it was necessary to first construct a standard curve for each target virus. […] Single-stranded DNA concentration was quantified for each cDNA library with the NanoDrop 1-C® instrument (Thermofisher Scientific) and the number of amplicon copies per μL of solution was determined using online calculators available at SciencePrimer.com. […]
# [12] = system: bee-relevant viruses; assay: Field colony study, bee-relevant viruses overall; format: in vivo, Apis mellifera
# Method: as §3, §4, §5
# [13] = system: Flock House virus (FHV); set-up: method as in PMID 28819165; settings: cited from earlier work
# [14] = system: DWV-A; assay: Field colony study, change in virus titer by qRT-PCR: DWV-A; format: in vivo, Deformed Wing virus
# Method: as §3, §4, §5
# [15] = system: LSV-2; assay: Field colony study, change in virus titer by qRT-PCR: LSV-2; format: in vivo, Lake Sinai virus; settings: emerging brood, 2 mM pinacidil, colony level
# Method: as §3, with “individual.” for “individual. Remaining pupae were homogenized in ice-cold PBS, with aliquots retained for qRT-PCR screening of DWV, as well as additional viruses relevant to bee health. Homogenate solutions were diluted in 1:1 sucrose and placed in calibrated spray bottles. A treatment and sampling schedule was constructed based on the 21-day egg-to-adult life history of worker bees (Additional file 1: Fig. S1). Both pinacidil and virus solutions were prepared fresh daily.”
# as §4, with “Template cDNA was then quantified by NanoDrop 1-C® and standardized to 500 ng/uL by addition of nuclease-free H2O.” left out
# [16] = emerging brood, 2 mM pinacidil, colony level
smiles,measurement,setting,value
CCCCNC(=O)NS(=O)(=O)c1ccc(C)cc1 [tolbutamide],Effect on paraquat-induced toxicity,"[1]; pre-exposure to modulator, 120-h feeding period",did not alter
"C[n+]1ccc(-c2cc[n+](C)cc2)cc1 [paraquat, Paraquat dichloride hydrate]",Survivorship difference between low and high mite groups,[2]; 1 and 2 mg/mL paraquat,no statistical differences
same,LT50 (95% CI),"[2]; High mites, paraquat 0.1 mg/mL",169 (142–177) Ba Hours
same,LT50 (95% CI),"[2]; High mites, paraquat 0.5 mg/mL",99 (71–136) Bb Hours
same,LT50 (95% CI),"[2]; High mites, paraquat 1 mg/mL",52 (22–84) Ac Hours
same,LT50 (95% CI),"[2]; High mites, paraquat 2 mg/mL",47 (38–63) Ac Hours
same,LT50 (95% CI),"[2]; Low mites, paraquat 0.1 mg/mL",82 (51–99) Aa Hours
same,LT50 (95% CI),"[2]; Low mites, paraquat 0.5 mg/mL",66 (52–80) Ab Hours
same,LT50 (95% CI),"[2]; Low mites, paraquat 1 mg/mL",54 (38–70) Ab Hours
same,LT50 (95% CI),"[2]; Low mites, paraquat 2 mg/mL",49 (42–56) Ab Hours
same,Survivorship of bees from high versus low mite-infested colonies,"[2]; paraquat 0.1 mg/mL, 96- to 168-h post treatment",significantly increased
same,Mortality in high mite versus low mite colonies,"[2]; paraquat 0.5 mg/mL, 72- and 96-h post treatment",significant (P < 0.05) reduction of mortality
same,Mortality,"[3]; paraquat 1 and 2 mg/mL, 48 h post-exposure",ca. 50%
same,Mortality,"[3]; paraquat 1 and 2 mg/mL, 72 h post-exposure",ca. 100%
same,Mortality,"[3]; paraquat, 48 h post-exposure",ca. 20%
same,Mortality,"[3]; paraquat, 72 h post-exposure",~58%
same,POX activity,[4]; 72 h post-exposure,significantly reduced
same,Survivorship after IAPV inoculation compared to IAPV alone,[5],increased survivorship
same,Mortality of IAPV + paraquat versus untreated control,"[5]; 0.5 mg/mL paraquat, 24- and 48-h post-inoculation",not significantly different
same,Mortality of paraquat + IAPV versus untreated and IAPV-only bees,"[5]; 0.5 mg/mL paraquat, 72 h post-inoculation","significantly (P < 0.05) greater than untreated bees, but significantly less than IAPV-only treated bees"
same,Reduction of total antioxidant concentrations compared to untreated,[6]; 24 h,1.3 fold
same,Reduction of total antioxidant concentrations compared to control treatment,[6]; 48 h,1.4 fold
same,Decrease in GOX compared to pinacidil-treated bees,[7]; in vivo,3.3 fold
same,Decrease in GOX compared to untreated bees,[7]; in vivo,11 fold
same,LT50,"[1]; 0.5 mg/mL paraquat alone, injection experiment",ca. 75 h
same,LT50,"[1]; oral, paraquat exposure alone",ca. 68 h
CC(N/C(=N\C#N)Nc1ccncc1)C(C)(C)C (stereo not shown) [pinacidil],Change in BQCV titer versus untreated colonies,"[8]; emerging brood, 2 mM pinacidil",not significantly different
same,Reduction of BQCV replication compared to virus only,[8]; [16],3.8 fold
same,BQCV replication compared to virus only inoculated colonies,[8]; nurse/forager bees,did not reduce viral replication
same,Dorsal vessel contraction rates,[9],increases
same,Change of DWV-B titer versus uninoculated colonies,"[10]; emerging brood, 2 mM pinacidil",not significantly different
same,Reduction of change in DWV-B titer compared to virus only inoculated colonies,[10]; [16],sixfold
same,"DWV-B titers, virus only versus pinacidil + virus",[10]; nurse/forager bees,not significantly different
same,Reduction in IAPV mRNA titer in the dorsal vessel versus IAPV-inoculated bees,[11],17.5 fold
same,POX activity,[4]; 24- and 72-h exposure,no statistical differences
same,Mortality of pinacidil + IAPV versus control treatment,"[5]; 24-, 72-, or 96-h post-inoculation",No significant difference
same,Reduction in mortality compared to control bees,"[5]; pinacidil + IAPV, 48 and 120 h",25%
same,Reduction of titers of bee-relevant viruses,[12]; colonies treated with pinacidil in the field,up to 75 fold
same,Viral replication in nurse bees,[12]; field study,did not reduce viral replication
same,Viral replication in emerging bees,"[12]; field study, mature colonies",near elimination
same,Effect against FHV infection of bees,[13],protective effect
same,Antioxidant levels compared to untreated individuals,[6]; 24 h post-treatment,did not reduce
same,Reduction of total antioxidant concentrations,[6]; 72 h,1.5 fold
same,Change of DWV-A titer versus uninoculated colonies,"[14]; emerging brood, 2 mM pinacidil",not significantly different
same,Reduction of change in DWV-A titer compared to virus only inoculated colonies,[14]; [16],eight
same,"DWV-A titers, virus only versus pinacidil + virus",[14]; nurse/forager bees,not significantly different
same,Reduction of LSV-2 replication compared to virus inoculation-only colonies,[15],approximately fivefold
same,Increase in GOX activity compared to untreated bees,[7]; 24-h exposure,3 fold
same,Increase in GOX activity compared to untreated bees,[7]; 72-h exposure,2.3 fold

# From PMC10286336, “Potassium ion channels as a molecular target to reduce virus infection and mortality of honey bee colonies” (Virology Journal, 2023)
